Measured values: patent US20240208992A1, “MACROCYCLES AS CFTR MODULATORS” (Idorsia Pharmaceuticals Ltd, priority 2021, published 2024)

Target: human F508del-CFTR (Homo sapiens, UniProt P13569, DEL508-508)
Experiment: F508del-CFTR cell surface expression (corrector activity), DiscoveRx ß-galactosidase complementation chemiluminescence assay in recombinant U2OS cell line;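 note: U2OS cells co-expressing ProLink-tagged F508del-CFTR and a membrane-anchored enzyme acceptor, where more surface CFTR restores β-galactosidase activity measured by chemiluminescence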
Conditions: U2OS cell line, 16h compound incubation; for EC50: EC50, F508del-CFTR cell surface expression, geomean values; for Emax: U2OS, in relation to the Emax of the corrector lumacaftor (=100%), arithmetic mean values

Sequence of human F508del-CFTR (P13569 with tags, fused parts or gaps DEL508-508): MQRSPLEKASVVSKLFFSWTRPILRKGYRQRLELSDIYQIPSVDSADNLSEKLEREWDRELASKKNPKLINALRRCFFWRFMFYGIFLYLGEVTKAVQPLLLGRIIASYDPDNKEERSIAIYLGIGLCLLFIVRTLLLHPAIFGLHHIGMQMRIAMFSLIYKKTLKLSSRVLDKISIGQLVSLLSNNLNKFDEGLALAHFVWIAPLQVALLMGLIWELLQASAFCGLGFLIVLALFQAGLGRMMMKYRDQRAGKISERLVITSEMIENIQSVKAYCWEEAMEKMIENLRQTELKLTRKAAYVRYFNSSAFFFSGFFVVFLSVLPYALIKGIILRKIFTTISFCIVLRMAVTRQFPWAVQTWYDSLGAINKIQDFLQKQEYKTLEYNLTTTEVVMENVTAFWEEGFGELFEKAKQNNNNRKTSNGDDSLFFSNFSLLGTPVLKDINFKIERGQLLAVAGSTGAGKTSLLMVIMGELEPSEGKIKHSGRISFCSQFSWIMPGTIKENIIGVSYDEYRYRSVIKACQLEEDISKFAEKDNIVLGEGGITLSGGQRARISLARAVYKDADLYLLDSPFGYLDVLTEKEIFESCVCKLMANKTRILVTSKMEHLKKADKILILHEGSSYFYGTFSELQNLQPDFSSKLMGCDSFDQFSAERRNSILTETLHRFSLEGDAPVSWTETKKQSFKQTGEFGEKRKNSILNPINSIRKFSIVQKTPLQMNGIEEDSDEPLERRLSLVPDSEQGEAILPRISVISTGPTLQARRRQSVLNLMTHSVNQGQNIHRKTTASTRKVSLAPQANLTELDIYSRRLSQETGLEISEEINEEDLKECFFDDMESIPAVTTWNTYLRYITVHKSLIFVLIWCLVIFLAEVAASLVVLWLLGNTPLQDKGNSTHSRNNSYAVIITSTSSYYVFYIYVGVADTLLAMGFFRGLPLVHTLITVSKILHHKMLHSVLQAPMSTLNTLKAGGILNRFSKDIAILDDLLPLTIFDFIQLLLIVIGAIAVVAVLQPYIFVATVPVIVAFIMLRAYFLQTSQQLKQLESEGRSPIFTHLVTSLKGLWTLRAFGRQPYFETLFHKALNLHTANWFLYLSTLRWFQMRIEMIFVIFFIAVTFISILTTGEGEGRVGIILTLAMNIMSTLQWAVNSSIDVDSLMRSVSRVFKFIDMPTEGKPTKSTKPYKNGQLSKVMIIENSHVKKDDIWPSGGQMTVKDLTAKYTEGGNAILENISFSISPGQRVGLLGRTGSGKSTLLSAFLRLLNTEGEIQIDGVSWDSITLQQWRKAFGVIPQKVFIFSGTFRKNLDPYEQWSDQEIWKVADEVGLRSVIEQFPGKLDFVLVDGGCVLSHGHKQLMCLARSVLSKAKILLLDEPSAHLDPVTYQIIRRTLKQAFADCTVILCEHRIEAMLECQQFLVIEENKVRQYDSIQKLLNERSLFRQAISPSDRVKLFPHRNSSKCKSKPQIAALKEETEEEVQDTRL

For `COc1cccc(CCNC(=O)[C@@H]2CC(=O)N(C)[C@@H](CC(C)C)C(=O)N(CCC3CCCCC3)CC(=O)N[C@H](Cc3ccccc3)COc3ccc4c(c3C(=O)N2)OCO4)c1` [Example 346, (8R,14S,18S)-8-benzyl-12-(2-cyclohexylethyl)-14-isobutyl-N-(3-methoxyphenethyl)-15-methyl-10,13,16,20-tetraoxo-7,8,9,10,11,12,13,14,15,16,17,18,19,20-tetradecahydro-[1,3]dioxolo[4′,5′:5,6]benzo[1,2-p][1]oxa[4,7,10,14]tetraazacycloheptadecine-18-carboxamide], the EC50 was 106 nM and the Emax was 282%.
For `[2H]C([2H])([2H])Oc1cccc(CCNC(=O)[C@@H]2CC(=O)N(C)[C@@H](CC(C)C)C(=O)N(CCC3CCCCC3)CC(=O)N[C@H](Cc3ccccc3)COc3ccc4c(c3C(=O)N2)OCO4)c1` [Example 347, (8R,14S,18S)-8-benzyl-12-(2-cyclohexylethyl)-14-isobutyl-N-(3-(methoxy-d3)phenethyl)-15-methyl-10,13,16,20-tetraoxo-7,8,9,10,11,12,13,14,15,16,17,18,19,20-tetradecahydro-[1,3]dioxolo[4′,5′:5,6]benzo[1,2-p][1]oxa[4,7,10,14]tetraazacycloheptadecine-18-carboxamide], the EC50 was 131 nM and the Emax was 282%.
Work on `COc1cccc(CCNC(=O)[C@@H]2CC(=O)N(C)[C@@H](CC(C)C)C(=O)N3CCN(C4CC4)C[C@@H]3C(=O)N[C@H](Cc3ccccc3)COc3ccc4ncn(C)c4c3C(=O)N2)c1` [Example 348, (8S,12S,18aR,21R)-21-benzyl-17-cyclopropyl-12-isobutyl-N-(3-methoxyphenethyl)-5,11-dimethyl-6,10,13,19-tetraoxo-6,7,8,9,10,11,12,13,16,17,18,18a,19,20,21,22-hexadecahydro-5H,15H-imidazo[4′,5′:5,6]benzo[1,2-p]pyrazino[2,1-f][1]oxa[4,7,10,14]tetraazacycloheptadecine-8-carboxamide] yielded an EC50 of 340 nM and an Emax of 155%.
With `CC(C)C[C@H]1C(=O)N(C)CC(=O)N[C@H](Cc2ccccc2)COc2cnc3c(F)cccc3c2C(=O)N[C@H](C(=O)NCCc2ccc3c(c2)OCO3)CC(=O)N1C` [Example 349, (3S,7S,13R)-N-(2-(benzo[d][1,3]dioxol-5-yl)ethyl)-13-benzyl-18-fluoro-7-isobutyl-6,9-dimethyl-1,5,8,11-tetraoxo-1,2,3,4,5,6,7,8,9,10,11,12,13,14-tetradecahydro-[1]oxa[4,7,10,14]tetraazacycloheptadecino[17,16-c]quinoline-3-carboxamide] the EC50 was 597 nM and the Emax was 258%.
In the case of `COc1cccc(CCNC(=O)[C@@H]2CC(=O)N(C)[C@@H](CC(C)C)C(=O)N(C)CC(=O)N[C@H](Cc3ccccc3)COc3cnc4c(F)cccc4c3C(=O)N2)c1` [Example 350, (3S,7S,13R)-13-benzyl-18-fluoro-7-isobutyl-N-(3-methoxyphenethyl)-6,9-dimethyl-1,5,8,11-tetraoxo-1,2,3,4,5,6,7,8,9,10,11,12,13,14-tetradecahydro-[1]oxa[4,7,10,14]tetraazacycloheptadecino[17,16-c]quinoline-3-carboxamide], the EC50 is reported as 546 nM and the Emax is reported as 299%.
`COc1cccc(CCNC(=O)[C@@H]2CC(=O)N(C)[C@@H](CC(C)C)C(=O)N3CCCC[C@@H]3C(=O)N[C@H](Cc3ccccc3)COc3ccc4oc(C)nc4c3C(=O)N2)c1` [Example 351, (8S,12S,18aR,21R)-21-benzyl-12-isobutyl-N-(3-methoxyphenethyl)-4,11-dimethyl-6,10,13,19-tetraoxo-6,7,8,9,10,11,12,13,16,17,18,18a,19,20,21,22-hexadecahydro-15H-oxazolo[5′,4′:5,6]benzo[1,2-p]pyrido[2,1-f][1]oxa[4,7,10,14]tetraazacycloheptadecine-8-carboxamide] gave an EC50 of 756 nM and an Emax of 127%.
`COc1cccc(CCNC(=O)[C@@H]2CC(=O)N(C)[C@@H](CC(C)C)C(=O)N3CCN(C(C)C)C[C@@H]3C(=O)N[C@H](Cc3ccccc3)COc3ccc4nc(C)oc4c3C(=O)N2)c1` [Example 352, (8S,12S,18aR,21R)-21-benzyl-12-isobutyl-17-isopropyl-N-(3-methoxyphenethyl)-4,11-dimethyl-6,10,13,19-tetraoxo-6,7,8,9,10,11,12,13,16,17,18,18a,19,20,21,22-hexadecahydro-15H-oxazolo[4′,5′:5,6]benzo[1,2-p]pyrazino[2,1-f][1]oxa[4,7,10,14]tetraazacycloheptadecine-8-carboxamide] was tested, and the EC50 was 297 nM and the Emax was 262%.
In the case of `COc1cccc(CCNC(=O)[C@@H]2CC(=O)N(C)[C@@H](CC(C)C)C(=O)N3CCN(C(C)C)C[C@@H]3C(=O)N[C@H](Cc3ccccc3)COc3ccc4ncn(C)c4c3C(=O)N2)c1` [Example 353, (8S,12S,18aR,21R)-21-benzyl-12-isobutyl-17-isopropyl-N-(3-methoxyphenethyl)-5,11-dimethyl-6,10,13,19-tetraoxo-6,7,8,9,10,11,12,13,16,17,18,18a,19,20,21,22-hexadecahydro-5H,15H-imidazo[4′,5′:5,6]benzo[1,2-p]pyrazino[2,1-f][1]oxa[4,7,10,14]tetraazacycloheptadecine-8-carboxamide], the EC50 is reported as 513 nM and the Emax is reported as 177%.
In the case of `COCCN1CCN2C(=O)[C@H](CC(C)C)N(C)C(=O)C[C@@H](C(=O)NCCc3cccc(OC)c3)NC(=O)c3c(ccc4ccccc34)OC[C@@H](Cc3ccccc3)NC(=O)[C@H]2C1` [Example 354, (4aR,7R,18S,22S)-7-benzyl-22-isobutyl-3-(2-methoxyethyl)-N-(3-methoxyphenethyl)-21-methyl-5,16,20,23-tetraoxo-2,3,4,4a,5,6,7,8,16,17,18,19,20,21,22,23-hexadecahydro-1H-naphtho[1,2-p]pyrazino[2,1-f][1]oxa[4,7,10,14]tetraazacycloheptadecine-18-carboxamide], the EC50 is reported as 231 nM and the Emax is reported as 321%.
Compound `COc1cccc(CCNC(=O)[C@@H]2CC(=O)N(C)[C@@H](CC(C)C)C(=O)N3CCN(C4CCC4)C[C@@H]3C(=O)N[C@H](Cc3ccccc3)COc3ccc4ccccc4c3C(=O)N2)c1` [Example 355, (4aR,7R,18S,22S)-7-benzyl-3-cyclobutyl-22-isobutyl-N-(3-methoxyphenethyl)-21-methyl-5,16,20,23-tetraoxo-2,3,4,4a,5,6,7,8,16,17,18,19,20,21,22,23-hexadecahydro-1H-naphtho[1,2-p]pyrazino[2,1-f][1]oxa[4,7,10,14]tetraazacycloheptadecine-18-carboxamide] has an EC50 of 87 nM and an Emax of 307%.
`COc1cccc(CCNC(=O)[C@@H]2CC(=O)N(C)[C@@H](CC(C)C)C(=O)N3CCN(C4CC4)C[C@@H]3C(=O)N[C@H](Cc3ccccc3)COc3ccc4ccccc4c3C(=O)N2)c1` [Example 356, (4aR,7R,18S,22S)-7-benzyl-3-cyclopropyl-22-isobutyl-N-(3-methoxyphenethyl)-21-methyl-5,16,20,23-tetraoxo-2,3,4,4a,5,6,7,8,16,17,18,19,20,21,22,23-hexadecahydro-1H-naphtho[1,2-p]pyrazino[2,1-f][1]oxa[4,7,10,14]tetraazacycloheptadecine-18-carboxamide] gave an EC50 of 167 nM and an Emax of 353%.
